Reference: patent publication US20260232767A1, “INTERLEUKIN-23 RECEPTOR ANTAGONIST PEPTIDES FOR USE IN THE TREATMENT OF PSORIASIS” (Janssen Pharmaceutica NV, priority 2023, published 2026)

System: subjects with moderate-to-severe plaque psoriasis
Experiment: Safety, adverse events, Example 2 through Week 56
Assay type: in vivo, human
Source text: The LTE safety analysis was based on randomized participants in Example who entered the present long-term extension study and received at least one dose of study intervention (including a partial dose) during the study period.

[1] = Combined, Week 16 through Week 56

SMILES: CC(=O)NCCCC[C@@H]1NC(=O)[C@H](Cc2c[nH]c3c(C)cccc23)NC(=O)[C@H]([C@@H](C)O)NC(=O)[C@H](CC(N)=O)NC(=O)[C@@H](NC(C)=O)C(C)(C)SSC(C)(C)[C@@H](C(=O)N[C@@H](Cc2ccc(OCCN)cc2)C(=O)N[C@@H](Cc2ccc3ccccc3c2)C(=O)NC2(C(=O)N[C@@H](CCC(=O)O)C(=O)N[C@@H](CC(N)=O)C(=O)N[C@@H](Cc3cccnc3)C(=O)N(C)CC(N)=O)CCOCC2)NC1=O [IL-23 receptor antagonist peptide, Ac-[Pen]*-N-T-[W(7-Me)]-[Lys(Ac)]-[Pen]*-Phe[4-(2-aminoethoxy)]-[2-Nal]-[THP]-E-N-[3-Pal]-Sarc-NH2 (*[Pen]-[Pen]* formdisulfidebond)]
- Respiratory, thoracic and mediastinal disorders: number of subjects (100 mg QD, through Week 56): 4
- Retinal vein occlusion: number of subjects (100 mg QD, through Week 56): 0
- Rhinorrhoea: number of subjects (100 mg QD, through Week 56): 0
- Seasonal allergy: number of subjects (100 mg QD, through Week 56): 0
- Skin and subcutaneous tissue disorders: % of subjects (100 mg QD, through Week 56): (4.7%)
- Skin and subcutaneous tissue disorders: number of subjects (100 mg QD, through Week 56): 2
- Skin laceration: % of subjects (100 mg QD, through Week 56): (2.3%)
- Skin laceration: number of subjects (100 mg QD, through Week 56): 1
- Skin papilloma: number of subjects (100 mg QD, through Week 56): 0
- Social circumstances: number of subjects (100 mg QD, through Week 56): 0
- Steatohepatitis: number of subjects (100 mg QD, through Week 56): 0
- Subjects with AE leading to discontinuation: Abdominal discomfort (100 mg QD, through Week 56): 0
- Subjects with AE leading to discontinuation: Abdominal pain (100 mg QD, through Week 56): 0
- Subjects with AE leading to discontinuation: Alanine aminotransferase increased (100 mg QD, through Week 56): 0
- Subjects with AE leading to discontinuation: Aspartate aminotransferase increased (100 mg QD, through Week 56): 0
- Subjects with AE leading to discontinuation: Asthenia (100 mg QD, through Week 56): 0
- Subjects with AE leading to discontinuation: Gamma-glutamyltransferase increased (100 mg QD, through Week 56): 0
- Subjects with AE leading to discontinuation: Insomnia (100 mg QD, through Week 56): 0
- Subjects with AE leading to discontinuation: Investigations (100 mg QD, through Week 56): 0
- Subjects with AE leading to discontinuation: Nausea (100 mg QD, through Week 56): 0
- Subjects with AE leading to discontinuation: Proctalgia (100 mg QD, through Week 56): 0
- Subjects with AE leading to discontinuation: Psoriasis (100 mg QD, through Week 56): 0
- Subjects with AE leading to discontinuation: Skin and subcutaneous tissue disorders (100 mg QD, through Week 56): 0
- Subjects with AE leading to discontinuation: Transaminases increased (100 mg QD, through Week 56): 0
- Subjects with AE leading to discontinuation: Weight increased (100 mg QD, through Week 56): 0
- Subjects with COVID-19 associated AE: SARS-CoV-2 test positive (100 mg QD, through Week 56): 0
- Subjects with treatment-emergent AE: Alanine aminotransferase increased (100 mg QD, through Week 56): 0
- Subjects with treatment-emergent AE: Aspartate aminotransferase increased (100 mg QD, through Week 56): 0
- Subjects with treatment-emergent AE: Bronchitis (100 mg QD, through Week 56): 0
- Subjects with treatment-emergent AE: Headache (100 mg QD, through Week 56): 5
- Subjects with treatment-emergent AE: Urinary tract infection (100 mg QD, through Week 56): 0
- Subjects with treatment-emergent serious AE: Cardiac disorders (100 mg QD, through Week 56): 0
- Subjects with treatment-emergent serious AE: Cerebrovascular accident (100 mg QD, through Week 56): 0
- Subjects with treatment-emergent serious AE: Coronary artery disease (100 mg QD, through Week 56): 0
- Subjects with treatment-emergent serious AE: Foot deformity (100 mg QD, through Week 56): 0
- Subjects with treatment-emergent serious AE: General disorders and administration site conditions (100 mg QD, through Week 56): 0
- Subjects with treatment-emergent serious AE: Infected cyst (100 mg QD, through Week 56): 0
- Subjects with treatment-emergent serious AE: Injury, poisoning and procedural complications (100 mg QD, through Week 56): 0
- Subjects with treatment-emergent serious AE: Ligament injury (100 mg QD, through Week 56): 0
- Subjects with treatment-emergent serious AE: Neoplasms benign, malignant and unspecified (incl cysts and polyps) (100 mg QD, through Week 56): 0
- Subjects with treatment-emergent serious AE: Nervous system disorders (100 mg QD, through Week 56): 0
- Subjects with treatment-emergent serious AE: Non-cardiac chest pain (100 mg QD, through Week 56): 0
- Subjects with treatment-emergent serious AE: Respiratory, thoracic and mediastinal disorders (100 mg QD, through Week 56): 0
- Subjects with treatment-emergent serious AE: Tonsillar hypertrophy (100 mg QD, through Week 56): 0
- Subjects with treatment-emergent serious AE: Uterine leiomyoma (100 mg QD, through Week 56): 0
- Subjects with treatment-emergent serious AE: Ventricular dysfunction (100 mg QD, through Week 56): 0
- Suicide attempt: % of subjects (100 mg QD, through Week 56): (2.3%)
- Suicide attempt: number of subjects (100 mg QD, through Week 56): 1
- Sunburn: number of subjects (100 mg QD, through Week 56): 0
- Thrombocytopenia: number of subjects (100 mg QD, through Week 56): 0
- Thrombocytosis: number of subjects (100 mg QD, through Week 56): 0
- Tonsillar hypertrophy: number of subjects (100 mg QD, through Week 56): 0
- Tooth fracture: number of subjects (100 mg QD, through Week 56): 0
- Type 2 diabetes mellitus: number of subjects (100 mg QD, through Week 56): 0
- Urinary tract disorder: number of subjects (100 mg QD, through Week 56): 0
- Uterine leiomyoma: number of subjects (100 mg QD, through Week 56): 0
- Vascular disorders: % of subjects (100 mg QD, through Week 56): (2.3%)
- Vascular disorders: number of subjects (100 mg QD, through Week 56): 1
- Ventricular dysfunction: number of subjects (100 mg QD, through Week 56): 0
- Vertigo: % of subjects (100 mg QD, through Week 56): (2.3%)
- Vertigo: number of subjects (100 mg QD, through Week 56): 1
- Vitamin D deficiency: number of subjects (100 mg QD, through Week 56): 0
- Number of subjects with treatment-emergent AE: Cholelithiasis [1]: 1
- Number of subjects with treatment-emergent AE: Ear and labyrinth disorders [1]: 2
- Number of subjects with treatment-emergent AE: Endocrine disorders [1]: 1
- Number of subjects with treatment-emergent AE: Eye disorders [1]: 3
- Number of subjects with treatment-emergent AE: Eyelid skin dryness [1]: 1
- Number of subjects with treatment-emergent AE: Goiter [1]: 1
- Number of subjects with treatment-emergent AE: Hepatobiliary disorders [1]: 2
- Number of subjects with treatment-emergent AE: Hypertransaminasemia [1]: 1
- Number of subjects with treatment-emergent AE: Immune system disorders [1]: 2
- Number of subjects with treatment-emergent AE: Insomnia [1]: 1
- Number of subjects with treatment-emergent AE: Ocular cyst [1]: 1
- Number of subjects with treatment-emergent AE: Psychiatric disorders [1]: 1
- Number of subjects with treatment-emergent AE: Retinal vein occlusion [1]: 1
- Number of subjects with treatment-emergent AE: Seasonal allergy [1]: 2
- Number of subjects with treatment-emergent AE: Vertigo [1]: 2
- Subjects with treatment-emergent AE: Cholelithiasis (%) [1]: (0.4%)
- Subjects with treatment-emergent AE: Ear and labyrinth disorders (%) [1]: (0.9%)
- Subjects with treatment-emergent AE: Endocrine disorders (%) [1]: (0.4%)
- Subjects with treatment-emergent AE: Eye disorders (%) [1]: (1.3%)
- Subjects with treatment-emergent AE: Eyelid skin dryness (%) [1]: (0.4%)
- Subjects with treatment-emergent AE: Goiter (%) [1]: (0.4%)
- Subjects with treatment-emergent AE: Hepatobiliary disorders (%) [1]: (0.9%)
- Subjects with treatment-emergent AE: Hypertransaminasemia (%) [1]: (0.4%)
- Subjects with treatment-emergent AE: Immune system disorders (%) [1]: (0.9%)
- Subjects with treatment-emergent AE: Insomnia (%) [1]: (0.4%)
- Subjects with treatment-emergent AE: Ocular cyst (%) [1]: (0.4%)
- Subjects with treatment-emergent AE: Psychiatric disorders (%) [1]: (0.4%)
- Subjects with treatment-emergent AE: Retinal vein occlusion (%) [1]: (0.4%)
- Subjects with treatment-emergent AE: Seasonal allergy (%) [1]: (0.9%)
- Subjects with treatment-emergent AE: Ventricular dysfunction (%) [1]: (0.4%)
- Subjects with treatment-emergent AE: Vertigo (%) [1]: (0.9%)
- Acrochordon: % of subjects (Combined, through Week 56): (0.8%)
- Acrochordon: number of subjects (Combined, through Week 56): 2
- Actinic keratosis: % of subjects (Combined, through Week 56): (0.4%)
- Actinic keratosis: number of subjects (Combined, through Week 56): 1
- Alopecia: % of subjects (Combined, through Week 56): (0.4%)
- Alopecia: number of subjects (Combined, through Week 56): 1
- Asthenia: % of subjects (Combined, through Week 56): (0.4%)
- Asthenia: number of subjects (Combined, through Week 56): 1
- Asthma: % of subjects (Combined, through Week 56): (0.4%)
- Asthma: number of subjects (Combined, through Week 56): 1
- Atrioventricular block first degree: % of subjects (Combined, through Week 56): (0.4%)
- Atrioventricular block first degree: number of subjects (Combined, through Week 56): 1
- Basal cell carcinoma: % of subjects (Combined, through Week 56): (0.4%)
- Basal cell carcinoma: number of subjects (Combined, through Week 56): 1
- Blood and lymphatic system disorders: % of subjects (Combined, through Week 56): (2.0%)
- Blood and lymphatic system disorders: number of subjects (Combined, through Week 56): 5
- Bronchitis chronic: % of subjects (Combined, through Week 56): (0.4%)
- Bronchitis chronic: number of subjects (Combined, through Week 56): 1
- Bundle branch block right: % of subjects (Combined, through Week 56): (0.4%)
- Bundle branch block right: number of subjects (Combined, through Week 56): 1
- Cardiac disorders: % of subjects (Combined, through Week 56): (1.6%)
- Cardiac disorders: number of subjects (Combined, through Week 56): 4
- Chills: % of subjects (Combined, through Week 56): (0.8%)
- Chills: number of subjects (Combined, through Week 56): 2
- Cholelithiasis: % of subjects (Combined, through Week 56): (0.4%)
- Cholelithiasis: number of subjects (Combined, through Week 56): 1
- Chronic obstructive pulmonary disease: % of subjects (Combined, through Week 56): (0.4%)
- Chronic obstructive pulmonary disease: number of subjects (Combined, through Week 56): 1
